Source: US20240158446A1, “CYCLIC COMPOUND HAVING SELECTIVE INHIBITORY ACTION ON KRAS OVER HRAS AND NRAS” (CHUGAI SEIYAKU KABUSHIKI KAISHA, priority 2021, published 2024)

Experiments:
[1] = target: GDP-bound HRAS wild-type protein (Homo sapiens, UniProt P01112); assay: Binding to HRAS by surface plasmon resonance (SPR), Single Cycle Kinetics; conditions: SPR KD ratio HRAS/KRAS, class symbols
[2] = target: GDP-bound NRAS wild-type protein (Homo sapiens, UniProt P01111); assay: Binding to NRAS by surface plasmon resonance (SPR), Single Cycle Kinetics; conditions: SPR KD ratio NRAS/KRAS, class symbols
GDP-bound NRAS wild-type protein, sequence (P01111 whole entry): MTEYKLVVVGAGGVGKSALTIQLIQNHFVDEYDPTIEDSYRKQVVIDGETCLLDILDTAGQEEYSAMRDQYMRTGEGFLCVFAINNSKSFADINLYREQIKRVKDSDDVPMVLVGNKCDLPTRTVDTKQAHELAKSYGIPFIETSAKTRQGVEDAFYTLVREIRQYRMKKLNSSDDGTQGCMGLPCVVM

GDP-bound HRAS wild-type protein, sequence (P01112 whole entry): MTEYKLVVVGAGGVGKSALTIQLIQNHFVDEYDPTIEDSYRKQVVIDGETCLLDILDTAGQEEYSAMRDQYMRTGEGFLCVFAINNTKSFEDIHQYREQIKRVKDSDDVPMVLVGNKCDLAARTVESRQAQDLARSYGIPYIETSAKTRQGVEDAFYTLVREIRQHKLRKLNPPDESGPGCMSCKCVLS

SMILES | HRAS/KRAS (ratio of KD value with respect to GDP-bound HRAS wild-type protein to KD value with respect to KRAS) [1] | NRAS/KRAS (ratio of KD value with respect to GDP-bound NRAS wild-type protein to KD value with respect to KRAS) [2]
CCC[C@H]1C(=O)N[C@@H]([C@@H](C)CC)C(=O)N(C2CC2)CC(=O)N(C)[C@H]2C/C=C\CCN(C2=O)[C@@H](Cc2ccc(C)cc2)C(=O)N(C)CC(=O)N[C@@H](CCc2cc(F)c3c(c2)CCC3)C(=O)N2C[C@H](OCC)C[C@H]2C(=O)NC2(CC(C)(C)C2)C(=O)N(C)[C@@H](C2CCCC2)C(=O)N(C)[C@H](C(=O)N(C)C)CC(=O)N1C [PP2879] | A (a compound having 10 or more and less than 20 is denoted as A) | A (a compound having 10 or more and less than 20 is denoted as A)
CCC[C@H]1C(=O)N[C@@H]([C@@H](C)CC)C(=O)N(C2CC2)CC(=O)N(C)[C@H]2C/C=C\CCN(C2=O)[C@@H](Cc2ccc(C)cc2)C(=O)N(C)CC(=O)N[C@@H](CCc2cc(F)c3c(c2)OCC3)C(=O)N2C[C@H](OCC)C[C@H]2C(=O)NC2(CC(C)(C)C2)C(=O)N(C)[C@@H](C2CCCC2)C(=O)N(C)[C@H](C(=O)N(C)C)CC(=O)N1C [PP2880] | A (a compound having 10 or more and less than 20 is denoted as A) | A (a compound having 10 or more and less than 20 is denoted as A)
CCC[C@H]1C(=O)N[C@@H]([C@@H](C)CC)C(=O)N(C2CC2)CC(=O)N(C)[C@H]2C/C=C\CCN(C2=O)[C@@H](Cc2ccc(C)cc2)C(=O)N(C)CC(=O)N[C@@H](CCc2ccc(C(F)(F)F)c(C3CC3)c2)C(=O)N2C[C@H](OCC)C[C@H]2C(=O)NC2(CC(C)(C)C2)C(=O)N(C)[C@@H](C2CCCC2)C(=O)N(C)[C@H](C(=O)N(C)C)CC(=O)N1C [PP2881] | A (a compound having 10 or more and less than 20 is denoted as A) | A (a compound having 10 or more and less than 20 is denoted as A)
CCC[C@H]1C(=O)N[C@@H]([C@@H](C)CC)C(=O)N(C2CC2)CC(=O)N(C)[C@H]2C/C=C\CCN(C2=O)[C@@H](Cc2ccc(C)cc2)C(=O)N(C)CC(=O)N[C@@H](CCc2ccc(C3CC3)c(OC)c2)C(=O)N2C[C@H](OCC)C[C@H]2C(=O)NC2(CC(C)(C)C2)C(=O)N(C)[C@@H](C2CCCC2)C(=O)N(C)[C@H](C(=O)N(C)C)CC(=O)N1C [PP2883] | A (a compound having 10 or more and less than 20 is denoted as A) | A (a compound having 10 or more and less than 20 is denoted as A)
CCC[C@H]1C(=O)N[C@@H]([C@@H](C)CC)C(=O)N(C2CC2)CC(=O)N(C)[C@H]2C/C=C\CCN(C2=O)[C@@H](Cc2ccc(C)cc2)C(=O)N(C)CC(=O)N[C@@H](CCc2ccc(C3CC3)c(F)c2)C(=O)N2C[C@H](OCC)C[C@H]2C(=O)NC2(CC(C)(C)C2)C(=O)N(C)[C@@H](C2CCCC2)C(=O)N(C)[C@H](C(=O)N(C)C)CC(=O)N1C [PP2884] | A (a compound having 10 or more and less than 20 is denoted as A) | A (a compound having 10 or more and less than 20 is denoted as A)
CCC[C@H]1C(=O)N[C@@H]([C@@H](C)CC)C(=O)N(C2CC2)CC(=O)N(C)[C@H]2C/C=C\CCN(C2=O)[C@@H](Cc2ccc(C)cc2)C(=O)N(C)CC(=O)N[C@@H](CCc2ccc(C3CC3)c(Cl)c2)C(=O)N2C[C@H](OCC)C[C@H]2C(=O)NC2(CC(C)(C)C2)C(=O)N(C)[C@@H](C2CCCC2)C(=O)N(C)[C@H](C(=O)N(C)C)CC(=O)N1C [PP2885] | A (a compound having 10 or more and less than 20 is denoted as A) | A (a compound having 10 or more and less than 20 is denoted as A)
CCC[C@H]1C(=O)N[C@@H]([C@@H](C)CC)C(=O)N(C2CC2)CC(=O)N(C)[C@H]2C/C=C\CCN(C2=O)[C@@H](Cc2ccc(C)cc2)C(=O)N(C)CC(=O)N[C@@H](CCc2ccc(C3CC3)c(C)c2)C(=O)N2C[C@H](OCC)C[C@H]2C(=O)NC2(CC(C)(C)C2)C(=O)N(C)[C@@H](C2CCCC2)C(=O)N(C)[C@H](C(=O)N(C)C)CC(=O)N1C [PP2886] | A (a compound having 10 or more and less than 20 is denoted as A) | A (a compound having 10 or more and less than 20 is denoted as A)
CCC[C@H]1C(=O)N[C@@H]([C@@H](C)CC)C(=O)N(C)CC(=O)N(C)[C@H]2C/C=C\CCN(C2=O)[C@@H](Cc2ccc(C)cc2)C(=O)N(C)CC(=O)N[C@@H](CCc2ccc3sc(C)c(C)c3c2)C(=O)N2C[C@H](OCC)C[C@H]2C(=O)NC2(CC(C)(C)C2)C(=O)N(C)[C@@H](C2CCCC2)C(=O)N(C)[C@H](C(=O)N(C)C)CC(=O)N1C [PP2891] | B (a compound having 3 or more and less than 10 is denoted as B) | A (a compound having 10 or more and less than 20 is denoted as A)
CCC[C@H]1C(=O)N[C@@H]([C@@H](C)CC)C(=O)N(C)CC(=O)N(C)[C@H]2C/C=C\CCN(C2=O)[C@@H](Cc2ccc(C(F)(F)F)cc2)C(=O)N(C)CC(=O)N[C@@H](CCc2ccc3c(C)c(C)n(C)c3c2)C(=O)N2C[C@H](OCC)C[C@H]2C(=O)NC2(CC(C)(C)C2)C(=O)N(C)[C@@H](C(CC)CC)C(=O)N(C)[C@H](C(=O)N(C)C)CC(=O)N1C [PP2904] | A (a compound having 10 or more and less than 20 is denoted as A) | AA (a compound having 20 or more is denoted as AA)
CCC[C@H]1C(=O)N[C@@H]([C@@H](C)CC)C(=O)N(C)CC(=O)N(C)[C@H]2C/C=C\CCN(C2=O)[C@@H](Cc2ccc(C)cc2)C(=O)N(C)CC(=O)N[C@@H](CCc2ccc3c(C)c(C)n(C)c3c2)C(=O)N2C[C@H](OCC)C[C@H]2C(=O)NC2(CC(C)(C)C2)C(=O)N(C)[C@@H](C(CC)CC)C(=O)N(C)[C@H](C(=O)N(C)C)CC(=O)N1C [PP2906] | A (a compound having 10 or more and less than 20 is denoted as A) | A (a compound having 10 or more and less than 20 is denoted as A)
CCC[C@H]1C(=O)N[C@@H]([C@@H](C)CC)C(=O)N(C)CC(=O)N(C)[C@H]2C/C=C\CCN(C2=O)[C@@H](Cc2ccc(C)cc2)C(=O)N(C)CC(=O)N[C@@H](CCc2ccc3c(C)cn(C)c3c2)C(=O)N2C[C@H](OCC)C[C@H]2C(=O)NC2(CC(C)(C)C2)C(=O)N(C)[C@@H](C(CC)CC)C(=O)N(C)[C@H](C(=O)N(C)C)CC(=O)N1C [PP2910] | A (a compound having 10 or more and less than 20 is denoted as A) | AA (a compound having 20 or more is denoted as AA)
CCC(CC)[C@H]1C(=O)N(C)[C@H](C(=O)N(C)C)CC(=O)N(C)[C@@H](COC)C(=O)N[C@@H]([C@@H](C)CC)C(=O)N(C)CC(=O)N(C)[C@H]2C/C=C\CCN(C2=O)[C@@H](Cc2ccc(C)cc2)C(=O)N(C)CC(=O)N[C@@H](CCc2cc(F)c(C(F)(F)F)c(F)c2)C(=O)N2CCCC[C@H]2C(=O)NC2(CC(C)(C)C2)C(=O)N1C [PP2922] | A (a compound having 10 or more and less than 20 is denoted as A) | AA (a compound having 20 or more is denoted as AA)
CCC(CC)[C@H]1C(=O)N(C)[C@H](C(=O)N(C)C)CC(=O)N(C)[C@@H](COC)C(=O)N[C@@H]([C@@H](C)CC)C(=O)N(C)CC(=O)N(C)[C@H]2C/C=C\CCN(C2=O)[C@@H](Cc2ccc(C)cc2)C(=O)N(C)CC(=O)N[C@@H](CCc2ccc(C(F)(F)F)c(Cl)c2)C(=O)N2CCCC[C@H]2C(=O)NC2(CC(C)(C)C2)C(=O)N1C [PP2931] | A (a compound having 10 or more and less than 20 is denoted as A) | A (a compound having 10 or more and less than 20 is denoted as A)
CCC(CC)[C@H]1C(=O)N(C)[C@H](C(=O)N(C)C)CC(=O)N(C)[C@@H](COC)C(=O)N[C@@H]([C@@H](C)CC)C(=O)N(C)CC(=O)N(C)[C@H]2C/C=C\CCN(C2=O)[C@@H](Cc2ccc(C)cc2)C(=O)N(C)CC(=O)N[C@@H](CCc2ccc(C(F)(F)F)c(OC)c2)C(=O)N2CCCC[C@H]2C(=O)NC2(CC(C)(C)C2)C(=O)N1C [PP2937] | A (a compound having 10 or more and less than 20 is denoted as A) | A (a compound having 10 or more and less than 20 is denoted as A)
CCC(CC)[C@H]1C(=O)N(C)[C@H](C(=O)N(C)C)CC(=O)N(C)[C@@H](COC)C(=O)N[C@@H]([C@@H](C)CC)C(=O)N(C)CC(=O)N(C)[C@H]2C/C=C\CCN(C2=O)[C@@H](Cc2ccc(C)cc2)C(=O)N(C)CC(=O)N[C@@H](CCc2ccc(C(F)(F)F)c(OC)c2)C(=O)N2CCOC[C@H]2C(=O)NC2(CC(C)(C)C2)C(=O)N1C [PP2938] | A (a compound having 10 or more and less than 20 is denoted as A) | AA (a compound having 20 or more is denoted as AA)
CCC[C@H]1C(=O)N[C@@H]([C@@H](C)CC)C(=O)N(C)CC(=O)N(C)[C@H]2C/C=C\CCN(C2=O)[C@@H](Cc2ccc(C)cc2)C(=O)N(C)CC(=O)N[C@@H](CCc2cc(Cl)c3sccc3c2)C(=O)N2C[C@H](OCC)C[C@H]2C(=O)NC2(CC(C)(C)C2)C(=O)N(C)[C@@H](C2CCCC2)C(=O)N(C)[C@H](C(=O)N(C)C)CC(=O)N1C [PP2947] | B (a compound having 3 or more and less than 10 is denoted as B) | B (a compound having 3 or more and less than 10 is denoted as B)
